Reference: US12325696B2, “Indazole derivative, preparation method therefor, and pharmaceutical application thereof” (JIANGSU HENGRUI MEDICINE CO., LTD., priority 2019, dated 2025)
Where two headings read alike, the source gives them in different places.

How the values were obtained:
[1] = Pharmacokinetics in BALB/C nude mice after intragastric administration; type: in vivo; conditions: female, mouse, plasma, po; for Vd/F: read-out: Apparent volume of distribution Vz/F; for AUC: read-out: Area under curve AUC; for CL/F: read-out: Clearance rate CL/F; for half-life: read-out: Half-life t1/2 (converted); for Cmax: read-out: Plasma concentration Cmax; for MRT: read-out: Residence time MRT
Protocol: BALB/C nude mice were used as test animals. The drug concentration in plasma at different time points was determined by LC/MS/MS method after intragastric administration of the compounds of the present disclosure to BALB/C nude mice. The pharmacokinetic behavior and characteristics of the compounds of the present disclosure was studied and evaluated in BALB/C nude mice.
Sixty-three BALB/C nude mice (female, equally divided into seven groups, nine mice per group) were purchased from Jiesijie Laboratory Animal Co., LTD. (Certificate No.: SCXK (Shanghai)2013-0006).
For the compound of Example 14, an appropriate amount of the compound was weighed, followed by the addition of 5% of DMSO, 5% of tween 80 and 90% of normal saline by volume to obtain a colorless, clear and transparent solution (0.1 mg/mL).
For the compounds of Examples 1, 15 and 39 to 42, an appropriate amount of the compound was weighed, followed by the addition of 9% of PEG400, 0.5% of tween 80 and 90.5% of 0.5% CMC-Na by volume to obtain a colorless, clear and transparent solution (1.5 mg/mL).
After an overnight fast, the test compounds were intragastrically administered at an administration volume of 0.2 ml/10 g respectively. The administration dose of the compound of Example 14 was 2 mg/kg, and the administration dose of the compounds of Examples 1, 15 and 39 to 42 was 30 mg/kg.
For the compounds of Examples 1 and 39, 0.1 ml of blood was taken at 0.25, 0.5, 1.0, 2.0, 4.0, 6.0, 8.0, 11.0 and 24.0 hours after the administration (from three animals per time point). The samples were stored in blood collection tubes treated with heparin (Sinopharm Chemical Reagent Co., Ltd.), and centrifuged for 10 minutes at 3500 rpm to separate the blood plasma. The blood plasma was stored at −20° C. The content of the test compound in the plasma of nude mouse after intragastrical administration of the test compound was determined. 25 μL of nude mouse plasma at each time point after the administration was taken, followed by the addition of 30 μL of the internal standard camptothecin solution (National Institutes for Food and Drug Control) (100 ng/mL) and 225 μL of acetonitrile. The resulting solution was vortex-mixed for 5 minutes, and centrifuged for 10 minutes (3700 to 4000 rpm). 0.1 to 0.5 μL of the supernatant was taken from the plasma samples for LC/MS/MS analysis.
For the compounds of Examples 14 and 15, 0.1 ml of blood was taken at 0.5, 1.0, 2.0, 4.0, 6.0, 8.0, 11.0 and 24.0 hours after the administration (from three animals per time point). The samples were stored in heparinized tubes, and centrifuged for 10 minutes at 3500 rpm to separate the blood plasma. The blood plasma was stored at −20° C. The content of the test compound in the plasma of nude mouse after intragastrical administration of the test compound was determined. 25 μL of nude mouse plasma at each time point after the administration was taken, followed by the addition of 30 μL of the internal standard camptothecin solution (100 ng/mL) and 200 μL of acetonitrile. The resulting solution was vortex-mixed for 5 minutes, and centrifuged for 10 minutes (3700 rpm). 0.25 to 1 μL of the supernatant was taken from the plasma samples for LC/MS/MS analysis.
For the compounds of Examples 40 to 42, 0.1 ml of blood was taken at 0.25, 0.5, 1.0, 2.0, 4.0, 6.0, 8.0, 11.0 and 24.0 hours after the administration (from three animals per time point). The samples were stored in tubes anticoagulated with EDTA-K2 (Shanghai Titan Scientific Co., Ltd.), and centrifuged for 1 minute at 10000 rpm and 4° C. The blood plasma was separated within one hour, and stored at −20° C. The process from blood collection to centrifugation was operated under an ice bath condition. The content of the test compound in the plasma of nude mouse after intragastrical administration of the test compound was determined. […]

[2] = target: estrogen receptor ERα wild-type (Homo sapiens (Human), UniProt P03372); test: Covalent modification of ERα wild-type LBD by high-resolution mass spectrometry; type: binding; conditions: after 24 hours; 2 μM protein, 10 μM compound, 4° C.
Chain of estrogen receptor ERα wild-type (P03372 296-554): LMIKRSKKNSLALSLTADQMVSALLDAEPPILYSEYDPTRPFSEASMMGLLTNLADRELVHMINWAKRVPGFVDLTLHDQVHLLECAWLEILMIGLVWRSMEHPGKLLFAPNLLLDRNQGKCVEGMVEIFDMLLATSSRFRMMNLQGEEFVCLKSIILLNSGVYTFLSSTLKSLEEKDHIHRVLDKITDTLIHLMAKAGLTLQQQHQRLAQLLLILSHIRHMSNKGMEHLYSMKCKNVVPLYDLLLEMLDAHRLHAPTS
Protocol: The ligand binding domain (LBD, aa296-554) of estrogen receptor ERα wild-type and ERα Y537S mutant-type was expressed in E. coli and purified. 2 μM ERα wild-type or ERα Y537S mutant-type protein and 10 μM compound were added to a buffer solution containing 50 mM Tris-HCl, pH7.5, 150 mM NaCl, 1 mM TCEP and 5% glycerol and mixed well. The solution was incubated at 4° C. for 24 hours, followed by high-resolution mass spectrometry (Agilent Technologies, Agilent Q-tof 6530) assay. Alternatively, 1 μM ERα wild-type or ERα Y537S mutant-type protein and 3 μM compound were added to a buffer solution containing 50 mM Tris-HCl, pH7.5, 150 mM NaCl, 1 mM TCEP and 5% glycerol and mixed well. The solution was incubated at 37° C. for 15 minutes, followed by high-resolution mass spectrometry assay. In the mass spectrometry assay results, the peak whose molecular weight is the sum of the molecular weight of the protein and compound is the product of covalent modification. The percentage of covalent modification is obtained by calculating the ratio of […] to total protein.

[3] = tested on: MCF7 cell; test: Inhibition of proliferation of MCF7 cell (CellTiter-Glo, 144 hours); type: cell-based; conditions: Homo sapiens; for IC50: MCF7, CellTiter-Glo, read-out: IC50 of the inhibitory effect on the proliferation of MCF7 cell; for Emax: MCF7 cell proliferation, read-out: Maximum inhibition
Procedure, shortened: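 Seeded overnight, MCF7 cells were treated in MEM with 2% FBS with nine 4-fold dilutions from 100 nM (0.5% DMSO blank). Incubation 144 h at 37° C, 5% CO2. CellTiter-Glo luminescence read; IC50 from signal versus log concentration.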

| Vd/F ([1]; 2 mg/kg) [L/kg] | AUC ([1]; 2 mg/kg) [ng·h/mL] | bioavailability ([1]; 2 mg/kg, read-out: Bioavailability F) [%] | CL/F ([1]; 2 mg/kg) [mL/min/kg] | half-life ([1]; 2 mg/kg) [h] | Cmax ([1]; 2 mg/kg) [ng/mL] | MRT ([1]; 2 mg/kg) [h] | Structure (SMILES) | Covalent modification effect on the estrogen receptor ERα wild-type [2] [%] | IC50 [3] [nM] | Emax [3] [%] | Vd/F ([1]; 30 mg/kg) [L/kg] | AUC ([1]; 30 mg/kg) [ng·h/mL] | CL/F ([1]; 30 mg/kg) [mL/min/kg] | half-life ([1]; 30 mg/kg) [h] | Cmax ([1]; 30 mg/kg) [ng/mL] | MRT ([1]; 30 mg/kg) [h] |
| --- | --- | --- | --- | --- | --- | --- | --- | --- | --- | --- | --- | --- | --- | --- | --- | --- |
| 14.2 | 205 | 24.8 | 163 | 1.01 | 87 | 1.9 | CN(C)C(=O)/C=C/CN1CCC[C@@H](Oc2ccc(/C(=C(/CC(F)(F)F)c3ccccc3)c3ccc4[nH]nc(F)c4c3)cn2)C1 [Example 14, (E)-N,N-Dimethyl-4-((R)-3-((5-((Z)-4,4,4-trifluoro-1-(3-fluoro-1H-indazol-5-yl)-2-phenylbut-1-en-1-yl)pyridin-2-yl)oxy)piperidin-1-yl)but-2-enamide] | 93 | 0.8 | 108 |  |  |  |  |  |  |
|  |  |  |  |  |  |  | CN(C)C(=O)/C=C/CNC1(COc2ccc(/C(=C(/CC(F)(F)F)c3ccccc3)c3ccc4[nH]nc(F)c4c3)cn2)CC1 [Example 39, (E)-N,N-Dimethyl-4-((1-(((5-((Z)-4,4,4-trifluoro-1-(3-fluoro-1H-indazol-5-yl)-2-phenylbut-1-en-1-yl)pyridin-2-yl)oxy)methyl)cyclopropyl)amino)but-2-enamide] | 97 | 0.2 | 113 | 2.47 | 16500 | 30.3 | 0.94 | 6600 | 1.57 |
|  |  |  |  |  |  |  | O=C(/C=C/CN1CCC[C@@H](Oc2ccc(/C(=C(/CC(F)(F)F)c3ccccc3)c3ccc4[nH]nc(F)c4c3)cn2)C1)N1CCCC1 [Example 15, (E)-1-(Pyrrolidin-1-yl)-4-((R)-3-((5-((Z)-4,4,4-trifluoro-1-(3-fluoro-1H-indazol-5-yl)-2-phenylbut-1-en-1-yl)pyridin-2-yl)oxy)piperidin-1-yl)but-2-en-1-one] | 95 | 0.2 | 107 | 5.87 | 6560 | 76 | 0.89 | 4570 | 1.41 |
|  |  |  |  |  |  |  | O=C(/C=C/CNC1(COc2ccc(/C(=C(/CC(F)(F)F)c3ccccc3)c3ccc4[nH]nc(F)c4c3)cn2)CC1)N1CC(O)C1 [Example 40, (E)-1-(3-Hydroxyazetidin-1-yl)-4-((1-(((5-((Z)-4,4,4-trifluoro-1-(3-fluoro-1H-indazol-5-yl)-2-phenylbut-1-en-1-yl)pyridin-2-yl)oxy)methyl)cyclopropyl)amino)but-2-en-1-one] | 96 | 0.1 | 115 | 4.59 | 11900 | 42.1 | 1.26 | 3560 | 2.3 |
|  |  |  |  |  |  |  | O=C(/C=C/CNC1(COc2ccc(/C(=C(/CC(F)(F)F)c3ccccc3)c3ccc4[nH]nc(F)c4c3)cn2)CC1)N1CCO[C@@H](CO)C1 [Example 42, (E)-1-((R)-2-(Hydroxymethyl)morpholino)-4-((1-(((5-((Z)-4,4,4-trifluoro-1-(3-fluoro-1H-indazol-5-yl)-2-phenylbut-1-en-1-yl)pyridin-2-yl)oxy)methyl)cyclopropyl)amino)but-2-en-1-one] |  | 0.03 | 105 | 11.5 | 4510 | 111 | 1.2 | 2570 | 1.56 |
|  |  |  |  |  |  |  | O=C(/C=C/CNC1(COc2ccc(/C(=C(/CC(F)(F)F)c3ccccc3)c3ccc4[nH]nc(F)c4c3)cn2)CC1)N1CC[C@H](O)C1 [Example 41, (E)-1-((S)-3-Hydroxypyrrolidin-1-yl)-4-((1-(((5-((Z)-4,4,4-trifluoro-1-(3-fluoro-1H-indazol-5-yl)-2-phenylbut-1-en-1-yl)pyridin-2-yl)oxy)methyl)cyclopropyl)amino)but-2-en-1-one] | 93 | 0.1 | 115 | 14.4 | 5020 | 99.6 | 1.67 | 2890 | 2.26 |
|  |  |  |  |  |  |  | O=C(/C=C/CNC1(COc2ccc(/C(=C(/CC(F)(F)F)c3ccccc3)c3ccc4[nH]nc(F)c4c3)cn2)CC1)N1CCOCC1 [Example 1, (E)-1-Morpholino-4-((1-(((5-((Z)-4,4,4-trifluoro-1-(3-fluoro-1H-indazol-5-yl)-2-phenylbut-1-en-1-yl)pyridin-2-yl)oxy)methyl)cyclopropyl)amino)but-2-en-1-one] | 97 | 0.5 | 100 | 8.76 | 9850 | 50.8 | 1.99 | 4280 | 1.6 |
